{
  "source": "patent US20140335052A1",
  "about": "“COMBINATION THERAPY FOR TREATING HCV INFECTION IN AN HCV-HIV COINFECTED PATIENT POPULATION” (BOEHRINGER INGELHEIM INTERNATIONAL GMBH, priority 2012, published 2014)",
  "key": {"[1]": {"system": "HCV genotype 1", "assay": "Phase III trial of FDV plus PegIFN/RBV in HCV/HIV coinfected patients: virologic response (plasma HCV RNA), Week 12 interim data", "assay_type": "in vivo, human", "settings": "for Virologic response Week 4 BLD / Virologic response Week 12 BLD: HCV RNA <15 IU/mL, not detected; for Virologic response Week 4 BLQ / Virologic response Week 12 BLQ: HCV RNA <25 IU/mL; for Virologic response Week 4 BLQ: FDV 120 or 240 mg QD (dose blinded) plus PegIFN/RBV; for ETS (Week 4 BLQ and Week 8 BLD): early treatment success", "procedure": "For the clinical trial described below, the Compound (1) drug product will be administered as a softgel capsule lipid-based formulation containing Compound (1) sodium salt. All references to “Compound (1)” in the below clinical study is the sodium salt form.\n(§1) Safety and Efficacy of 120 mg and 240 mg Compound (1) Once Daily in Combination With Pegylated Interferon Alpha 2a (PegIFN) and Ribavirin (RBV) for Treatment of Chronic Hepatitis C (HCV) Genotype 1 Infection in HIV/HCV Co-infected Patients. A Multinational, Randomised, Parallel Group, Open-label Trial.\n(§2) The aim of this trial is to evaluate the efficacy and the safety of Compound (1) given for 12 or 24 weeks in combination with PegIFN/RBV given for 24 or up to 48 weeks in HCV treatment-naive or relapsers patients coinfected with HIV. Patients who achieve reduction of HCV viral load according to Early Treatment Success (ETS) criteria will be randomized 1:1 to stop triple therapy at 24 weeks, or continue PegIFN/RBV for 48 week treatment duration. Patients without ETS continue PegIFN/RBV for 48 week treatment duration.\n• Sustained Virological Response (SVR): Plasma Hepatitis C Virus (HCV) Ribonucleic Acid (RNA) level <25 IU/mL, undetected at week 12 after the planned treatment duration.\nHCV RNA level<25 IU/mL (undetected) 24 weeks after the originally planned treatment duration. • Early Treatment Success (ETS): Plasma HCV RNA level<25 IU/mL (detected or undetected) at Week 4 and HCV RNA<25 IU/mL, undetected at Week 8 and have not discontinued any study drug prior to week 24. • Alanine Aminotransferase normalisation: Alanine Aminotransferase in normal range 24 weeks after the end of the originally planned treatment duration\nInclusion criteria (selected): • 1. Chronic hepatitis C (HCV) genotype 1 infection • 2. Chronic Human Immunodeficiency Virus (HIV)-1 infection • 3. HCV treatment naive or HCV treatment experienced but only relapsers • 4. Age 18 to 70 years • 5. […] HCV viral load >1.000 IU/mL • 7. No AIDS-defining illness during 6 months prior to screening Exclusion criteria (selected): • 1. HCV infection of mixed genotype (1/2, 1/3, 1/4) • 2. Evidence of acute or chronic liver […] • 3. Hepatitis B virus (HBV) infection with presence of HBs-Ag • 4. Active malignancy or history or malignancy within the last 5 years • 5. Received concomitant systemic antiviral (other than antiretroviral), hematopoietic growth factor or immunomodulatory treatment in 28 days prior enrollment. • 6. Decompensated liver disease, as evidenced by ascites, hepatic encephalopathy, esophageal variceal bleeding, and/or laboratory values that add up to >/=7 points according tho the Child-Turcotte-Pugh classification • 7. Hemoglobin </=11 g/dL for women and </=12 g/dL for men • 8. Active autoimmune disease, including autoimmune hepatitis • 9. Known hypersensitivity to any ingredient of the study drugs\n(§3) Individuals co-infected with HCV/HIV who were HCV treatment-naïve (TN) or relapsed after previous HCV therapy were randomized to receive FDV 120 or 240 mg QD for 12 or 24 weeks, in combination with PegIFN (180 μg once weekly) and weight-based RBV for 24 or 48 weeks (response-guided). Patients on efavirenz- or PI-based antiretroviral therapy (ART) were allocated to receive FDV 240 mg or 120 mg QD, respectively; those receiving other ART or no ART were randomized to either FDV dose. Interim data remains blinded for FDV dose. Week 12 interim data are presented."}, "[2]": {"system": "HCV GT1", "settings": "HCV GT1 mono-infected TN patients; 240 mg QD FDV plus PegIFN/RBV; study 1220.5; cited from earlier work"}, "[3]": {"assay": "Phase III trial of FDV plus PegIFN/RBV in HCV/HIV coinfected patients: safety (adverse events, HIV RNA suppression)", "assay_type": "in vivo, human", "procedure": "as §1, §2, §3\nHCV RNA was BLD at Week 4/Week 12 in 64%/64% of patients not on ART, and in 63%/85% of patients receiving ART. […] For example, in a prior study in HCV GT1 mono-infected TN patients treated with 240 mg QD FDV plus PegIFN/RBV (Boehringer Ingelheim, data on file, Clinical Trial Report for study 1220.5, U12-2567-01), HCV RNA was BLQ at week 4 and BLD at week 12 in 94% (133/142) and 93% (132/142) of patients, respectively. […] These preliminary on-treatment efficacy data are promising given that a) 17% of the coinfected patients had cirrhosis (patients with cirrhosis were not included in the 1220.5 study), b) preliminary efficacy data in HCV/HIV coinfected represent sponsor-blinded results of both FDV dose groups (e.g., 120 mg QD and 240 mg QD FDV), and c) the HCV GT1/HIV co-infected patient population is historically a more difficult-to-treat patient population with substantially lower HCV cure rates with the current standard of care treatment of pegIFN and RBV when compared to HCV GT1 monoinfected patients. The most frequent adverse events (AEs) were those known for PegIFN/RBV treatment: nausea (37%), fatigue (33%) and diarrhea (27%). Serious AEs were reported in 32 (10%) patients (including 2 deaths; none considered related to study medications). To date, 18 patients discontinued early due to AEs."}, "[4]": {"settings": "HCV/HIV co-infected TN patient population, interim data restated in text, FDV plus PegIFN/RBV"}, "[5]": {"settings": "Relapsers (N = 69), FDV plus PegIFN/RBV"}, "[6]": {"settings": "TN patients (N = 239), FDV plus PegIFN/RBV"}, "[7]": {"settings": "Total (N = 308), FDV plus PegIFN/RBV"}, "[8]": {"settings": "patients not on ART, FDV plus PegIFN/RBV"}, "[9]": {"settings": "patients receiving ART, FDV plus PegIFN/RBV"}, "[10]": {"settings": "HCV/HIV coinfected patients (308 treated), interim"}},
  "note": "Marks after values point to notes of the source that are not given here.",
  "data": [
    {"smiles": "C=C[C@@H]1C[C@]1(NC(=O)[C@@H]1C[C@@H](Oc2cc(-c3csc(C(=O)NC(C)C)n3)nc3c(Br)c(OC)ccc23)CN1C(=O)[C@@H](NC(=O)OC1CCCC1)C(C)(C)C)C(=O)O", "note": "[FDV, 1-{[4-[8-Bromo-2-(2-isopropylcarbamoyl-thiazol-4-yl)-7-methoxy-quinolin-4-yloxy]-1-(R)-(2-cyclopentyloxycarbonylamino-3,3-(S)-dimethyl-butyryl)-pyrrolidine-(S)-2-carbonyl]-amino}-2-(S)-vinyl-cyclopropane-(R)-carboxylic acid]", "values": [
      {"measurement": "Early virologic response rates", "setting": "[1]; HCV GT1 patients coinfected with HIV, Weeks 4 and 12, FDV plus PegIFN/RBV, interim analysis", "result": "high early virologic response rates"},
      {"measurement": "HCV RNA BLD at week 12, patients", "setting": "[1]; [4]", "result": 82, "unit": "%"},
      {"measurement": "HCV RNA BLQ at week 4, patients", "setting": "[1]; [4]", "result": 80, "unit": "%"},
      {"measurement": "Virologic response Week 4 BLD", "setting": "[1]; [5]", "result": "51 (74) n (%)"},
      {"measurement": "Virologic response Week 12 BLD", "setting": "[1]; [5]", "result": "63 (91) n (%)"},
      {"measurement": "Virologic response Week 4 BLQ", "setting": "[1]; Relapsers (N = 69)", "result": "63 (91)^b n (%)"},
      {"measurement": "Virologic response Week 12 BLQ", "setting": "[1]; [5]", "result": "64 (93)^d n (%)"},
      {"measurement": "ETS (Week 4 BLQ and Week 8 BLD)", "setting": "[1]; [5]", "result": "61 (88) n (%)"},
      {"measurement": "Virologic response Week 4 BLD", "setting": "[1]; [6]", "result": "143 (60) n (%)"},
      {"measurement": "Virologic response Week 12 BLD", "setting": "[1]; [6]", "result": "195 (82) n (%)"},
      {"measurement": "Virologic response Week 4 BLQ", "setting": "[1]; TN patients (N = 239)", "result": "191 (80)^a n (%)"},
      {"measurement": "Virologic response Week 12 BLQ", "setting": "[1]; [6]", "result": "206 (86)^c n (%)"},
      {"measurement": "ETS (Week 4 BLQ and Week 8 BLD)", "setting": "[1]; [6]", "result": "184 (77)^e n (%)"},
      {"measurement": "Virologic response Week 4 BLD", "setting": "[1]; [7]", "result": "194 (63) n (%)"},
      {"measurement": "Virologic response Week 12 BLD", "setting": "[1]; [7]", "result": "258 (84) n (%)"},
      {"measurement": "Virologic response Week 4 BLQ", "setting": "[1]; Total (N = 308)", "result": "254 (82) n (%)"},
      {"measurement": "Virologic response Week 12 BLQ", "setting": "[1]; [7]", "result": "270 (88) n (%)"},
      {"measurement": "ETS (Week 4 BLQ and Week 8 BLD)", "setting": "[1]; [7]", "result": "245 (80) n (%)"},
      {"measurement": "HCV RNA BLD at Week 4, patients", "setting": "[1]; [8]", "result": 64, "unit": "%"},
      {"measurement": "HCV RNA BLD at week 12, patients", "setting": "[1]; [8]", "result": 64, "unit": "%"},
      {"measurement": "HCV RNA BLD at Week 4, patients", "setting": "[1]; [9]", "result": 63, "unit": "%"},
      {"measurement": "HCV RNA BLD at week 12, patients", "setting": "[1]; [9]", "result": 85, "unit": "%"},
      {"measurement": "HCV RNA BLD at week 12, number of patients of total", "setting": "[2]", "result": "132/142"},
      {"measurement": "HCV RNA BLD at week 12, patients", "setting": "[2]", "result": 93, "unit": "%"},
      {"measurement": "HCV RNA BLQ at week 4, number of patients of total", "setting": "[2]", "result": "133/142"},
      {"measurement": "HCV RNA BLQ at week 4, patients", "setting": "[2]", "result": 94, "unit": "%"},
      {"measurement": "Adverse event: diarrhea", "setting": "[3]; [10]", "result": 27, "unit": "%"},
      {"measurement": "Adverse event: fatigue", "setting": "[3]; [10]", "result": 33, "unit": "%"},
      {"measurement": "Adverse event: nausea", "setting": "[3]; [10]", "result": 37, "unit": "%"},
      {"measurement": "Serious AEs reported, number of patients", "setting": "[3]; [10]", "result": 32, "unit": "patients"},
      {"measurement": "Serious AEs reported, share of patients", "setting": "[3]; [10]", "result": 10, "unit": "%"},
      {"measurement": "Deaths (among serious AEs; none considered related to study medications)", "setting": "[3]; HCV/HIV coinfected patients, interim", "result": 2, "unit": "deaths"},
      {"measurement": "Patients discontinued early due to AEs", "setting": "[3]; HCV/HIV coinfected patients, to date (interim)", "result": 18, "unit": "patients"},
      {"measurement": "Loss of HIV RNA suppression", "setting": "[3]; patients on ART", "result": "No patient on ART experienced loss of HIV RNA suppression"}
    ]}
  ]
}
